Assays:
CDK4/Cyclin D1 = target: T1, CDK4/Cyclin D1 (Homo sapiens, UniProt P11802); test: CDK4/CyclinD1 enzymatic activity assay (TR-FRET); assay type: biochemical; conditions: ATP 2 mM final, read-out: CDK4_D1 IC50
T1 construct: purchased ProQinase; host or cells: insect cell
Procedure, shortened: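 Insect-cell-expressed CDK4/Cyclin D1 (1 nM) phosphorylated ULight-4E-BP1 peptide (100 nM) at 2 mM ATP in HEPES pH 7.4 buffer after 20 min compound preincubation. Reaction started with 10 mM MgCl2, ran 45 min at 37 °C, then EDTA quench and Eu-anti-phospho-4E-BP1 TR-FRET detection. IC50 from 9-point 3-fold dilutions, 4-parameter fit.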

CDK2/Cyclin E2 = CDK2/Cyclin E2 (Homo sapiens, UniProt P24941); test: CDK2/CyclinE2 enzymatic activity assay (TR-FRET); assay type: biochemical; conditions: ATP 1 mM final, read-out: CDK2_E1 IC50
Procedure, shortened: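 Insect-cell-expressed CDK2/Cyclin E2 (1 nM), ULight-4E-BP1 (50 nM) and ATP (1 mM) in HEPES pH 7.4 buffer were preincubated 20 min at RT with compound (9-dose, 3-fold), started with 10 mM MgCl2 and run 45 min at 37 °C. EDTA/Eu-anti-P-4E-BP1 stop, 60 min TR-FRET detection; IC50 from 4-parameter Hill fit.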

OVCAR3 p-RB = test: pRB ICW assay in OVCAR3 cells; assay type: cell-based; conditions: Homo sapiens, OVCAR-3, incubated with compound for 2 hours
Procedure, shortened: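 OVCAR3 cells were treated 2 h at 37 °C with a 9-point half-log compound series, in duplicate, with 10 μM reference compound as maximum inhibition. Cells were then fixed, permeabilized and stained with anti-phospho-RB plus DRAQ5. In-cell western intensities were read at 700/800 nm on Odyssey CLx.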

T1 sequence (P11802 whole entry): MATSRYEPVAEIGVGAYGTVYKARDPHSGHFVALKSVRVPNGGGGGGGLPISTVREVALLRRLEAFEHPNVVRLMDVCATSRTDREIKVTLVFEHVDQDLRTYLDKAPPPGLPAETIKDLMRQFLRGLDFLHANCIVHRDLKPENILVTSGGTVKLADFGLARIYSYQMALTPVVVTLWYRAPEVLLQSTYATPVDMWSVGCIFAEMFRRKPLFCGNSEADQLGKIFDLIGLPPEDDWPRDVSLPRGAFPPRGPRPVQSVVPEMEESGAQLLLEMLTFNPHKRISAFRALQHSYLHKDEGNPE
T1 sequence (P24385 whole entry partner): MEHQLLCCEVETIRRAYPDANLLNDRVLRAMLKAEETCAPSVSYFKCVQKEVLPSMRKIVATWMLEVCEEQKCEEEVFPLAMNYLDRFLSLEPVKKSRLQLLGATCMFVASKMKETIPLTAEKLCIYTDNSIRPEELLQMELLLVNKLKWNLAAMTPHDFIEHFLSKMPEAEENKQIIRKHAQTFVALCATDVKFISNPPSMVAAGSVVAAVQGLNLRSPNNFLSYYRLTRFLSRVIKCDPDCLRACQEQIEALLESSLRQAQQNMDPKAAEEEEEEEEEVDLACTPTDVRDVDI

Row | SMILES | IC50 (CDK4/Cyclin D1) | IC50 (CDK2/Cyclin E2) | IC50 (OVCAR3 p-RB)
1 | Cn1cc(S(=O)(=O)N2CCC(Nc3ncc(C(F)(F)F)c(-c4cnc(C(O)C(F)(F)F)s4)n3)CC2)cn1 (stereo not drawn) [Example 89, 2,2,2-trifluoro-1-(5-(2-((1-((1-methyl-1H-pyrazol-4-yl)sulfonyl)piperidin-4-yl)amino)-5-(trifluoromethyl)pyrimidin-4-yl)thiazol-2-yl)ethan-1-ol] | ≤ 100 nM | ≤ 100 nM | ≤ 100 nM
2 | Cn1cnc(S(=O)(=O)N2CCC(Nc3ncc(C(F)(F)F)c(-c4cnc(C(O)C(F)(F)F)s4)n3)CC2)c1 (stereo not drawn) [Example 90, 2,2,2-trifluoro-1-(5-(2-((1-((1-methyl-1H-imidazol-4-yl)sulfonyl)piperidin-4-yl)amino)-5-(trifluoromethyl)pyrimidin-4-yl)thiazol-2-yl)ethan-1-ol] | ≤ 100 nM | ≤ 100 nM | ≤ 100 nM
3 | Cn1cnc(S(=O)(=O)N2CCC(Nc3ncc(C(F)(F)F)c(-c4cnc(C(O)C(F)F)s4)n3)CC2)c1 (stereo not drawn) [Example 91, 2,2-difluoro-1-(5-(2-((1-((1-methyl-1H-imidazol-4-yl)sulfonyl)piperidin-4-yl)amino)-5-(trifluoromethyl)pyrimidin-4-yl)thiazol-2-yl)ethan-1-ol] | ≤ 100 nM | ≤ 100 nM | ≤ 100 nM
4 | Cn1cc(S(=O)(=O)N2CCC(Nc3ncc(C(F)(F)F)c(-c4cnc(C(O)C(F)F)s4)n3)CC2)cn1 (stereo not drawn) [Example 92, 2,2-difluoro-1-(5-(2-((1-((1-methyl-1H-pyrazol-4-yl)sulfonyl)piperidin-4-yl)amino)-5-(trifluoromethyl)pyrimidin-4-yl)thiazol-2-yl)ethan-1-ol] | ≤ 100 nM | ≤ 100 nM | ≤ 100 nM
5 | Cc1ncc(-c2nc(N[C@@H]3CCN(S(=O)(=O)c4cnn(C)c4)C[C@H]3F)ncc2C(F)(F)F)s1 [Example 93, N-((3R,4R)-3-fluoro-1-((1-methyl-1H-pyrazol-4-yl)sulfonyl)piperidin-4-yl)-4-(2-methylthiazol-5-yl)-5-(trifluoromethyl)pyrimidin-2-amine] | ≤ 100 nM | ≤ 100 nM | 100 to 1000 nM
6 | Cc1ncc(-c2nc(N[C@H]3CCN(S(=O)(=O)c4cnn(C)c4)C[C@H]3F)ncc2C(F)(F)F)s1 [Example 94, N-((3R,4S)-3-fluoro-1-((1-methyl-1H-pyrazol-4-yl)sulfonyl)piperidin-4-yl)-4-(2-methylthiazol-5-yl)-5-(trifluoromethyl)pyrimidin-2-amine] | ≤ 100 nM | ≤ 100 nM | ≤ 100 nM
7 | Cn1cc(S(=O)(=O)N2CCC(Nc3ncc(C(F)(F)F)c(-c4cnc(C5(O)CCCC5)s4)n3)CC2)cn1 [Example 95, 1-(5-(2-((1-((1-methyl-1H-pyrazol-4-yl)sulfonyl)piperidin-4-yl)amino)-5-(trifluoromethyl)pyrimidin-4-yl)thiazol-2-yl)cyclopentan-1-ol] | ≤ 100 nM | ≤ 100 nM | ≤ 100 nM

Results, then the molecule that gave them:

Row | IC50 (CDK4/Cyclin D1) | IC50 (CDK2/Cyclin E2) | IC50 (OVCAR3 p-RB) | SMILES
8 | 100 to 1000 nM | ≤ 100 nM | ≤ 100 nM | C[C@@H]1CN(S(=O)(=O)c2cn(C)cn2)CC[C@@H]1Nc1ncc(C(F)(F)F)c(-c2cnc(C(C)(C)O)s2)n1 [Example 96, 2-(5-(2-(((3R,4S)-3-methyl-1-((1-methyl-1H-imidazol-4-yl)sulfonyl)piperidin-4-yl)amino)-5-(trifluoromethyl)pyrimidin-4-yl)thiazol-2-yl)propan-2-ol]
9 | 100 to 1000 nM | 100 to 1000 nM | > 1000 nM | CC(O)c1ncc(-c2nc(N[C@@H]3CCN(S(=O)(=O)c4cnn(C)c4)C[C@@H]3F)ncc2C(F)(F)F)s1 (stereo partly drawn) [Example 97, 1-(5-(2-(((3S,4R)-3-fluoro-1-((1-methyl-1H-pyrazol-4-yl)sulfonyl)piperidin-4-yl)amino)-5-(trifluoromethyl)pyrimidin-4-yl)thiazol-2-yl)ethan-1-ol]
10 | ≤ 100 nM | ≤ 100 nM | ≤ 100 nM | CC(O)c1ncc(-c2nc(N[C@H]3CCN(S(=O)(=O)c4cnn(C)c4)C[C@H]3F)ncc2C(F)(F)F)s1 (stereo partly drawn) [Example 98, 1-(5-(2-(((3R,4S)-3-fluoro-1-((1-methyl-1H-pyrazol-4-yl)sulfonyl)piperidin-4-yl)amino)-5-(trifluoromethyl)pyrimidin-4-yl)thiazol-2-yl)ethan-1-ol]
11 | ≤ 100 nM | ≤ 100 nM | 100 to 1000 nM | CC(O)c1ncc(-c2nc(N[C@@H]3CCN(S(=O)(=O)c4cnn(C)c4)C[C@H]3F)ncc2C(F)(F)F)s1 (stereo partly drawn) [Example 99, 1-(5-(2-(((3R,4R)-3-fluoro-1-((1-methyl-1H-pyrazol-4-yl)sulfonyl)piperidin-4-yl)amino)-5-(trifluoromethyl)pyrimidin-4-yl)thiazol-2-yl)ethan-1-ol]
12 | 100 to 1000 nM | ≤ 100 nM | > 1000 nM | CC(O)c1ncc(-c2nc(N[C@H]3CCN(S(=O)(=O)c4cnn(C)c4)C[C@@H]3F)ncc2C(F)(F)F)s1 (stereo partly drawn) [Example 100, 1-(5-(2-(((3S,4S)-3-fluoro-1-((1-methyl-1H-pyrazol-4-yl)sulfonyl)piperidin-4-yl)amino)-5-(trifluoromethyl)pyrimidin-4-yl)thiazol-2-yl)ethan-1-ol]
13 | 100 to 1000 nM | ≤ 100 nM | 100 to 1000 nM | CC(O)c1ncc(-c2nc(N[C@H]3CCN(S(=O)(=O)c4cnn(C)c4)C[C@H]3C)ncc2C(F)(F)F)s1 (stereo partly drawn) [Example 102, 1-(5-(2-(((3R,4S)-3-methyl-1-((1-methyl-1H-pyrazol-4-yl)sulfonyl)piperidin-4-yl)amino)-5-(trifluoromethyl)pyrimidin-4-yl)thiazol-2-yl)ethan-1-ol]
14 | 100 to 1000 nM | ≤ 100 nM | > 1000 nM | CC(O)c1ncc(-c2nc(N[C@H]3CCN(S(=O)(=O)c4cnc(N)s4)C[C@H]3C)ncc2C(F)(F)F)s1 (stereo partly drawn) [Example 103, 1-(5-(2-(((3R,4S)-1-((2-aminothiazol-5-yl)sulfonyl)-3-methylpiperidin-4-yl)amino)-5-(trifluoromethyl)pyrimidin-4-yl)thiazol-2-yl)ethan-1-ol]
15 | 100 to 1000 nM | ≤ 100 nM | 100 to 1000 nM | CC(O)c1ncc(-c2nc(N[C@H]3CCN(S(=O)(=O)c4c[nH]cn4)C[C@H]3C)ncc2C(F)(F)F)s1 (stereo partly drawn) [Example 104, 1-(5-(2-(((3R,4S)-1-((1H-imidazol-4-yl)sulfonyl)-3-methylpiperidin-4-yl)amino)-5-(trifluoromethyl)pyrimidin-4-yl)thiazol-2-yl)ethan-1-ol]
